Counter-ions that a name gives are not always drawn.
Assays:
mice [1] = assay: P-phenylquinone-induced abdominal writhing test in mice; format: in vivo, Male Charles River mice (Swiss Strain); details: Mus musculus, sc, 20 min; s.c.; 20 min pretreatment; p-phenylquinone 2 mg/Kg i.p.; graded protection; read-out: ANALGESIA MOUSE WRITHING ED50
Protocol: A) P-phenylquinone-induced abdominal writhing test in mice
The methodology employed is based on that described by Sigmund et al, Proc. Soc. Exptl. Biol. 95, 729/1957, modified by Milne and Twomey, Agents and Actions, 10, 31/1980.
Male Charles River mice (Swiss Strain), 25-36 g body weight, were used. Animals were allowed food and water ad libitum and were randomized into groups of 10 prior to experimentation. Test compounds were dissolved in either distilled water or distilled water plus 0.1M AMS, and administered by the subcutaneous route in a final volume of 10 ml/Kg. Control animals received 10 ml/Kg of the appropriate vehicle alone. Following a pretreatment period of 20 min., mice were injected intraperitoneally with p-phenylquinone, 2 mg/Kg at 37° C. in a final volume of […]. […] During this period the number of abdominal writhing responses per animal were recorded where writhing consists of an intermittent contraction of the abdomen associated with hind leg extension.
The degree of antinociceptive protection afforded by the test compound was determined as the mean number of writhing responses observed in the treated group (T) expressed as a percentage of the mean number of writhing responses in the control group (C) according to the following formula:
[1-(T/C]×100%=% graded protection

mice [2] = assay: Tail-flick test in mice; format: in vivo, Male Charles River mice (Swiss Strain); details: Mus musculus, sc, 0.5 h; s.c.; 30 min pretreatment; quantal protection (reaction time doubled); read-out: ANALGESIA MOUSE TAIL-FLICK ED50
Protocol: B) Tail-flick test in mice
The methodology employed is based on that described by D'Amour and Smith, J. Pharmacol. Exp. Ther. 72, 74/1941.
Male Charles River mice (Swiss Strain), 22-34 g body weight were used. Animals were allowed food and water ad libitum and were randomized into groups of 10 prior to experimentation.
Test compounds were dissolved in either distilled water or distilled water plus 0.1M AMS and administered by the subcutaneous route in a final volume of 10 ml/Kg. Control animals received 10 ml/kg of the appropriate vehicle alone. Following a pretreatment period of 30 min., the mice were again placed under the heat source and the reaction tine re-determined.
Percentage quantal protection was determined as the number of mice in which the reaction time was doubled compared to pretreatment values, expressed as a percentage of the total number of mice in the group.

Structure (SMILES) | ED50 (mice [1]) [mg/kg] | ED50 (mice [2]) [mg/kg]
O=C(Cc1ccc(Cl)c(Cl)c1)N1CCCC[C@H]1CN1CC=CC1 [Example 1, (2S)-1-(3,4-dichlorophenyl)acetyl-2-(3-pyrrolin-1-yl)methyl piperidine hydrochloride] | 0.005 | 0.045
CC1(C)CCCN(C(=O)Cc2ccc(Cl)c(Cl)c2)C1CN1CC=CC1 (centres unmarked) [Example 2, 1-(3,4-dichlorophenyl)acetyl-2-(3-pyrrolin-1-yl)methyl-3,3-dimethyl piperidine hydrochloride] | 0.006 | 0.021
CC1(C)CCCN(C(=O)Cc2ccc(C(F)(F)F)cc2)C1CN1CC=CC1 (centres unmarked) [Example 3, 1-(4-trifluoromethylphenyl)acetyl-2-(3-pyrrolin-1-yl)methyl-3,3-dimethyl piperidine hydrochloride] | 0.006 | 0.015
CC1(C)CCCN(C(=O)Cc2ccc3c(c2)CCCC3)C1CN1CC=CC1 (centres unmarked) [Example 4, 1-(5,6,7,8-tetrahydronapht-2-yl)acetyl-2-(3-pyrrolin-1-yl) methyl-3,3-dimethyl piperidine hydrochloride] | 0.025 | 0.193
O=C(Cc1ccc(Cl)c(Cl)c1)N1CCc2ccccc2C1CN1CC=CC1 (centres unmarked) [Example 5, 1-(3-pyrrolin-1-yl)methyl-2-(3,4-dichlorophenyl)acetyl-1,2,3,4-tetrahydroisoquinoline hydrochloride] | 0.005 | 0.015
CC1(C)CN(C(=O)Cc2ccc(Cl)c(Cl)c2)C(CN2CC=CC2)c2ccccc21 (centres unmarked) [Example 6, 1-(3-pyrrolin-1-yl)methyl-2-(3,4-dichlorophenyl)acetyl-4,4-dimethyl-1,2,3,4-tetrahydroisoquinoline hydrochloride] | 0.047 | 0.275
O=C(Cc1ccc(Cl)c(Cl)c1)N1CCc2sccc2C1CN1CC=CC1 (centres unmarked) [Example 7, 4-(3-pyrrolin-1-yl)methyl-5-(3,4-dichlorophenyl)acetyl-4,5,6,7-tetrahydrothieno[3,2-c]pyridine hydrochloride hemihydrate] | 0.002 | 0.008
CC1(C)CN(C(=O)Cc2ccc(Cl)c(Cl)c2)C(CN2CC=CC2)c2ccsc21.Cl (centres unmarked) [Example 8, 4-(3-pyrrolin-1-yl)methyl-5-(3,4-dichlorophenyl)acetyl-7,7-dimethyl-4,5,6,7-tetrahydrothieno[3,2-c]pyridine hydrochloride] | 0.04 | 0.55
O=C1CCCc2cc(CC(=O)N3CCCC[C@H]3CN3CC=CC3)ccc21 [Example 9, (2S)-1-[1-oxo-3,4-dihydro-(2H)-napht-6-yl]acetyl-2-(3-pyrrolin-1-yl)methyl piperidine hydrochloride] | 0.023 | 0.316
CC1(C)CCCN(C(=O)Cc2ccc3c(c2)CCCC3=O)C1CN1CC=CC1 (centres unmarked) [Example 10, 1-[1-oxo-3,4-dihydro-(2H)-napht-6-yl]acetyl-2-(3-pyrrolin-1-yl)methyl-3,3-dimethyl piperidine hydrochloride] | 0.053 | 0.594

From US5366981A, “N-acyl-substituted azacyclic compounds, processes for their preparaion, and their use as pharmaceuticals” (Dr Lo Zambeletti S.p.A., priority 1989, dated 1994)
